Assay [1] addresses T1, HPK1 protein (Homo sapiens, UniProt Q92918).
T1 construct: Frozen human PBMC were purchased from Shanghai OribioTech; host or cells: human PBMC
Nature of the assay: HPK1 protein degradation in human PBMC (western blot). The note with it: 18 h incubation. Type of assay: cell-based. As to the method:
HPK1 protein degradation in human PBMC: Frozen human PBMC were purchased from Shanghai OribioTech and recovered with culture medium (RMPI1640) prior to use. The cells were then incubated with a variety of concentrations of compound. After incubation for 18 h, the cells were collected and lysed. The protein concentration was determined by BCA protein assay kit from Thermo (23227). The HPK1 protein level was determined by western blots, using anti-human HPK1 polyclonal antibody from CST (4472S). Proteins were loaded into each well of the pre-casting gels and subjected to electrophoretic separation by SDS-PAGE. The protein resolved by SDS-PAGE were transferred to PVDF, blocked by 5% skim milk, and probed with anti-human HPK1 antibody or β-actin antibody from CST (3700S), using standard western blotting procedure.
T1 sequence (Q92918 whole entry): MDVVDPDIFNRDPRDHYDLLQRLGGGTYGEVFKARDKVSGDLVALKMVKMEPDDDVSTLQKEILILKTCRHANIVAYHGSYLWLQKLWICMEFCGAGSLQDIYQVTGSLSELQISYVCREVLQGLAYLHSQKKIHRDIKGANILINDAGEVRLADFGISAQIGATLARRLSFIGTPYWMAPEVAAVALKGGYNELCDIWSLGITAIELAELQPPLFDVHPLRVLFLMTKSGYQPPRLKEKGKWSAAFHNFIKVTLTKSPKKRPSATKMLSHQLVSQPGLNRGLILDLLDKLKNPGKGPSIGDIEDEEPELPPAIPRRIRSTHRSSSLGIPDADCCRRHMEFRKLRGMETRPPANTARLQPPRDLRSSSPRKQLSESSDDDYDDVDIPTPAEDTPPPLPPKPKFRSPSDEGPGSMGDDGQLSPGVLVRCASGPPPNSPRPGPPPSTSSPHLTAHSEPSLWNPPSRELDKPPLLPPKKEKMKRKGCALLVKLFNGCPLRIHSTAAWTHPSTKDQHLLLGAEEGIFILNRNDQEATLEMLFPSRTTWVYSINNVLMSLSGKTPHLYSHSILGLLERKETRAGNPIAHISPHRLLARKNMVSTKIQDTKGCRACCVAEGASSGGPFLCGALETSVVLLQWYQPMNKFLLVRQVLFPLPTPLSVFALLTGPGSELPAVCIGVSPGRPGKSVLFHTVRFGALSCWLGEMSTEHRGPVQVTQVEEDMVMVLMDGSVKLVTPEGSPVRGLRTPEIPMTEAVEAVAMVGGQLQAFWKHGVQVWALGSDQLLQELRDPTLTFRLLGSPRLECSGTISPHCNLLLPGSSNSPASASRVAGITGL
(Immunoblotting shows a protein as a band on a membrane.)

Assay [2] has as its target T2, HPK1 protein (Homo sapiens, UniProt Q92918).
T2 construct: purchased Signal Chem M23-11G-10
T2 sequence (Q92918 1-346 limits assumed): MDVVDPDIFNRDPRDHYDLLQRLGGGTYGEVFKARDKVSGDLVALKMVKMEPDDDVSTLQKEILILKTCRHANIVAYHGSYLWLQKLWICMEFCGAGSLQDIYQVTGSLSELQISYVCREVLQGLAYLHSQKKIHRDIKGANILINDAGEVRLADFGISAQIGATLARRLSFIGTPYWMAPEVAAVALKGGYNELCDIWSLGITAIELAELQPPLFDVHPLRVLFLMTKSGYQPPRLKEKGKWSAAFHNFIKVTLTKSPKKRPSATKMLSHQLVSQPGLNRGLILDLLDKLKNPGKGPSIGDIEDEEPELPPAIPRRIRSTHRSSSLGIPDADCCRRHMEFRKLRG
Nature of the assay: HPK1 enzyme inhibition assay (ADP-Glo). The note with it: MBP substrate, ATP, ADP-Glo readout. Type of assay: biochemical. In outline:
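Recombinant human HPK1 preincubated with compound 60 min at 25 °C, then reaction with MBP (0.2 ug/ul, 2× stock) and ATP (20 μM, 2× stock) 60 min at 25 °C. ADP formed detected by ADP-Glo after ATP depletion and conversion to ATP; IC50 calculated from signal.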
(ADP-Glo first removes unused ATP, then detects ADP through luciferase.)

Assay [3] addresses T3, HPK1 protein (Mus musculus, UniProt P70218).
T3 construct: the CD3+ T cell population was isolated from spleenocytes of mice; endogenous in cells; host or cells: primary mouse splenic CD3+ (pan) T cells
T3 sequence (P70218 1-827): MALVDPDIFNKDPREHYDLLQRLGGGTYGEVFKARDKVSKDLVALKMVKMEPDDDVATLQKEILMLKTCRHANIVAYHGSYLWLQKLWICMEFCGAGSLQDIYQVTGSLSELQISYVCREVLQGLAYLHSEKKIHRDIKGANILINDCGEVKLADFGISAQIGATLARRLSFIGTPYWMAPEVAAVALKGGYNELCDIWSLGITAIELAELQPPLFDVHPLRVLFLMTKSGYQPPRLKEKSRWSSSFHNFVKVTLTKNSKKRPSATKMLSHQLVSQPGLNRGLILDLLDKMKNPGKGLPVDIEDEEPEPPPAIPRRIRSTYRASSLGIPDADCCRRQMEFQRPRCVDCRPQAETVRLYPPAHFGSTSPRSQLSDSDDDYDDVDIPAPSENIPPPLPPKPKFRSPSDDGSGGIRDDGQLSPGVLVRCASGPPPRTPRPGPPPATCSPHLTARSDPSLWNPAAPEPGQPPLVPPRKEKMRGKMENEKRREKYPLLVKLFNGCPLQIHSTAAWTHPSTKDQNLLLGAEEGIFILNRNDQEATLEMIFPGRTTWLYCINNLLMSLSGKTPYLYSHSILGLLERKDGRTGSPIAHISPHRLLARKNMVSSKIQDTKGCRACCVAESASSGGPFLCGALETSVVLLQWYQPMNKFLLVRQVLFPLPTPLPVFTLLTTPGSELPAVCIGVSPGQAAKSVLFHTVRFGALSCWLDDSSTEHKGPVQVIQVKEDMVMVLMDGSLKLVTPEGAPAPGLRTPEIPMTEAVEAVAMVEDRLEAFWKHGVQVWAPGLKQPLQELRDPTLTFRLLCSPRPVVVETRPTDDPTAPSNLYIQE
Description: HPK1 protein degradation in mouse pan T cell (western blot). Type of assay: cell-based. The conditions noted are these: 18 h incubation. As to the method:
HPK1 protein degradation in mouse pan T cell: the CD3+ T cell population was isolated from spleenocytes of mice by using Pan T cell isolation kit from Miltenyi Biotec (130-095-130) following manufacture's instruction. The isolated T cells were then incubated with a variety of concentrations of compound. After incubation for 18 h, the cells were collected and lysed. The protein concentration was determined by BCA protein assay kit from Thermo (23227). The HPK1 protein level was determined by western blots, using anti-human HPK1 polyclonal antibody from CST (4472). Proteins were loaded into each well of the pre-casting gels and subjected to electrophoretic separation by SDS-PAGE. The protein resolved by SDS-PAGE were transferred to PVDF, blocked by 5% skim milk and probed with anti-human HPK1 antibody or β-actin antibody from CST (3700S), using following standard western blotting procedure.

A further assay relates to HPK1 p-SLP-76. Nature of the assay: HPK1 p-SLP-76 inhibition assay in human PBMC (HTRF). Type of assay: cell-based. The conditions noted are these: 6 h compound, anti-CD3 stimulation 20 min. As to the method:
Human PBMC were purchased from OriCells (FPB004F-C). Before compound treatment, PBMC were starved in PRMI-1640 medium supplemented with 0.5% FBS overnight. The cell density was adjusted to 1*10^7 cells/mL in assay medium (RPMI-1640 no phenol red with 0.5% FBS) and 16 μL cell suspension was transferred per well to a 384-well plate (Corning #3765). 6× solution of test compound was prepared in assay medium and 4 μL was added per well to the 384-well plate. The plate was then incubated at 37° C., 5% CO2 for 6 h. PBMC in 384-well plate were stimulated with anti-CD3 (BD Biosciences #555329, final conc. is 10 ug/mL) for 20 min at 37° C., 5% CO2 by adding 4 μL 6× antibody solution per well. Phospho-SLP76 HTRF kit was purchased from Cisbio (63ADK076PEH). 8 μL 4× Lysis Buffer was added to 384-well plate after anti-CD3 stimulation. The plate was centrifuged at 1,000 rpm for 1 min, shaken at 250 rpm for 60 min and centrifuged again at 1,000 rpm for 5 min. Afterwards the cell lysates were transferred to the assay plate (Greiner #784075) with 16 μL per well. 4 μL detection antibody mix per well prepared in Detection Buffer was added to the assay plate, followed by centrifugation at 1,000 rpm for 1 min and incubation at 25° C. overnight.
In general terms: Time-resolved FRET reads energy transfer from a long-lived donor to a nearby acceptor.

By Dmax is commonly meant the greatest extent of degradation seen. The term IC50 denotes the point on the concentration scale where inhibition reaches its midpoint. A higher IC50 goes with lower potency. For the compound `CCc1c[nH]c2ncc(-c3cccc(N4CCN(C(=O)CCN5CCN(c6ccc7c(c6)C(=O)N(C6CCC(=O)NC6=O)C7=O)CC5)CC4=O)c3)c(Cl)c12` (stereo not drawn) [Example 21, 5-(4-(3-(4-(3-(4-chloro-3-ethyl-1H-pyrrolo[2,3-b]pyridin-5-yl)phenyl)-3-oxopiperazin-1-yl)-3-oxopropyl)piperazin-1-yl)-2-(2,6-dioxopiperidin-3-yl)isoindoline-1,3-dione], the Dmax on HPK1 protein [1] stood at 60%. In addition, the IC50 against HPK1 protein [2] was in the range of 10 to 100 nM.

Consider `CCc1c[nH]c2ncc(-c3cccc(N4CCN(CCOC5CCN(c6cc7c(cc6F)C(=O)N(C6CCC(=O)NC6=O)C7=O)CC5)CC4=O)c3)c(Cl)c12` (stereo not drawn) [Example 26], for which the Dmax was found to be 91% on HPK1 protein [3] and 86% at HPK1 protein [1]. At HPK1 protein [2], the IC50 lay within 10 to 100 nM.

`CCc1c[nH]c2ncc(-c3cccc(N4CCN(CCC(=O)N5CCN(c6cc7c(cc6F)C(=O)N(C6CCC(=O)NC6=O)C7=O)CC5)CC4=O)c3)c(Cl)c12` (stereo not drawn) [Example 30, 5-(4-(3-(4-(3-(4-chloro-3-ethyl-1H-pyrrolo[2,3-b]pyridin-5-yl)phenyl)-3-oxopiperazin-1-yl)propanoyl)piperazin-1-yl)-2-(2,6-dioxopiperidin-3-yl)-6-fluoroisoindoline-1,3-dione]: the figures for the Dmax on HPK1 protein [3] and on HPK1 protein [1] were 80% and 61%, respectively. The compound further displayed a concentration for half-maximal inhibition (IC50) on HPK1 protein [2] of 10 to 100 nM.

For `O=C1CCC(N2C(=O)c3ccc(N4CCC(OCC(=O)N5CCN(c6cccc(-c7cnc8[nH]cc(C9CC9)c8c7Cl)c6)C(=O)C5)CC4)cc3C2=O)C(=O)N1` (stereo not drawn) [Example 31], the results for the Dmax on HPK1 protein [3] and on HPK1 protein [1] were 95% and 98%, respectively. The compound also displayed an IC50 on HPK1 protein [2] of 10 to 100 nM.

Take `CCc1c[nH]c2ncc(-c3cccc(N4CCN(C(=O)CCOC5CCN(c6ccc7c(c6)C(=O)N(C6CCC(=O)NC6=O)C7=O)CC5)CC4=O)c3)c(Cl)c12` (stereo not drawn) [Example 32]: the Dmax at HPK1 protein [3] worked out at 90%; at HPK1 protein [1], 78%. For the same compound, the IC50 against HPK1 protein [2] fell in the range of 10 to 100 nM.

For `CCc1c[nH]c2ncc(-c3cccc(N4CCN(CC5CCN(c6cc7c(cc6F)C(=O)N(C6CCC(=O)NC6=O)C7=O)CC5)CC4=O)c3)c(Cl)c12` (stereo not drawn) [Example 38, 5-(4-((4-(3-(4-chloro-3-ethyl-1H-pyrrolo[2,3-b]pyridin-5-yl)phenyl)-3-oxopiperazin-1-yl)methyl)piperidin-1-yl)-2-(2,6-dioxopiperidin-3-yl)-6-fluoro isoindoline-1,3-dione], the maximal degradation (Dmax) was determined as 90% on HPK1 protein [3] and 30% on HPK1 protein [1]. Besides, on HPK1 protein [2], the IC50 was in the range of 10 to 100 nM.

Take `O=C1CCC(N2C(=O)c3cc(F)c(N4CCC(OCCCN5CCN(c6cccc(-c7cnc8[nH]cc(CC(F)F)c8c7Cl)c6)C(=O)C5)CC4)cc3C2=O)C(=O)N1` (stereo not drawn) [Example 39, 5-(4-(3-(4-(3-(4-chloro-3-(2,2-difluoroethyl)-1H-pyrrolo[2,3-b]pyridin-5-yl)phenyl)-3-oxopiperazin-1-yl)propoxy)piperidin-1-yl)-2-(2,6-dioxopiperidin-3-yl)-6-fluoroisoindoline-1,3-dione]: the results for the Dmax at HPK1 protein [3] and at HPK1 protein [1] were 80% and 85%, respectively. The IC50 against HPK1 protein [2] fell in the range of 100 to 1000 nM.

`O=C1CCC(N2C(=O)c3cc(F)c(N4CCC(OCCCN5CCN(c6cccc(-c7cnc8[nH]cc(C9CC9)c8c7Cl)c6)C(=O)C5)CC4)cc3C2=O)C(=O)N1` (stereo not drawn) [Example 40, 5-(4-(3-(4-(3-(4-chloro-3-cyclopropyl-1H-pyrrolo[2,3-b]pyridin-5-yl)phenyl)-3-oxopiperazin-1-yl)propoxy)piperidin-1-yl)-2-(2,6-dioxopiperidin-3-yl)-6-fluoroisoindoline-1,3-dione]: the Dmax on HPK1 protein [3] is 95%; at HPK1 protein [1] it was 88%. The same compound yielded an IC50 at HPK1 protein [2] of 10 to 100 nM.

Take `CC(COC1CCN(c2cc3c(cc2F)C(=O)N(C2CCC(=O)NC2=O)C3=O)CC1)N1CCN(c2cccc(-c3cnc4[nH]cc(C5CC5)c4c3Cl)c2)C(=O)C1` (stereo not drawn) [Example 49, 5-(4-(2-(4-(3-(4-chloro-3-cyclopropyl-1H-pyrrolo[2,3-b]pyridin-5-yl)phenyl)-3-oxopiperazin-1-yl)propoxy)piperidin-1-yl)-2-(2,6-dioxopiperidin-3-yl)-6-fluoroisoindoline-1,3-dione]: on HPK1 protein [1], the Dmax is below 50%. For the same compound, the IC50 on HPK1 protein [2] fell in the range of 100 to 1000 nM.

Turning to `CCc1c[nH]c2ncc(-c3cccc(N4CCN(C(=O)CCN5CCN(C(=O)c6ccc(C)c(N7CCC(=O)NC7=O)c6)CC5)CC4=O)c3)c(Cl)c12` [Example 50, 1-(5-(4-(3-(4-(3-(4-chloro-3-ethyl-1H-pyrrolo[2,3-b]pyridin-5-yl)phenyl)-3-oxopiperazin-1-yl)-3-oxopropyl)piperazine-1-carbonyl)-2-methylphenyl)dihydro pyrimidine-2,4 (1H,3H)-dione], the Dmax at HPK1 protein [3] was 80%. Besides, the IC50 in the assay on HPK1 p-SLP-76 is above 10 µM; on HPK1 protein [2] it was at most 10 nM.

As to `O=C1CCC(N2Cc3cc(C4=CC5CCC(C4)N5CCCN4CCN(c5cccc(-c6cnc7[nH]cc(C8CC8)c7c6Cl)c5)C(=O)C4)ccc3C2=O)C(=O)N1` (stereo not drawn) [Example 64, 3-(5-(8-(3-(4-(3-(4-chloro-3-cyclopropyl-1H-pyrrolo[2,3-b]pyridin-5-yl)phenyl)-3-oxopiperazin-1-yl)propyl)-8-azabicyclo[3.2.1]oct-2-en-3-yl)-1-oxoisoindolin-2-yl)piperidine-2,6-dione], the Dmax at HPK1 protein [1] came out at 70%. The same compound showed an IC50 at HPK1 protein [2] of at most 10 nM.

On HPK1 protein [3], `Cn1nc(N2CCC(=O)NC2=O)c2ccc(C3CCN(CCCN4CCN(c5cccc(-c6cnc7[nH]cc(C8CC8)c7c6Cl)c5)C(=O)C4)CC3)cc21` [Example 77, 1-(6-(1-(3-(4-(3-(4-chloro-3-cyclopropyl-1H-pyrrolo[2,3-b]pyridin-5-yl)phenyl)-3-oxopiperazin-1-yl)propyl)piperidin-4-yl)-1-methyl-1H-indazol-3-yl)dihydro pyrimidine-2,4 (1H,3H)-dione] yielded a maximal degradation (Dmax) of 95%. The values for the IC50 with HPK1 p-SLP-76 and at HPK1 protein [2] were at most 0.3 µM and at most 10 nM, respectively.
